Experimental data reported in patent publication US20210254069A1, “COMBINATION THERAPIES COMPRISING C/EBP ALPHA SARNA” (MiNA THERAPEUTICS LIMITED, priority 2018, published 2021).
In the oligonucleotide strings, read from the 5' end, every base follows the letter of its sugar. An asterisk marks phosphorothioate; unmarked linkages are phosphodiester. Other units and linkages are bracketed, terminal groups are in braces. A string of capitals states the bases alone. [invAb] = inverted abasic unit; d = 2'-deoxy (DNA); m = 2'-O-methyl; r = 2'-OH (RNA)

Key:
[1] = system: HCC rat DEN model; assay: DEN rat HCC model, tumour volume; format: in vivo; details: DEN rats; treated 3x/week for 2 weeks (MTL-CEBPA i.v.; sorafenib P.O. 10 mg/kg); sacrifice day 15; PBS 644.7
Protocol: (§1) Male Wistar rats (150-180 g) at 7 weeks of age were obtained from the Animal Center of National Taiwan University. The rats were housed in standard conditions, and all the experiments were conducted in accordance with the “Guide for the Care and Use of Laboratory Animals” prepared by the Institutional Animal Care and Use Committee of National Taiwan University. The rats were given DEN solution daily (Sigma, St Louis, Mo.) as the sole source of drinking water for 6 weeks, followed by 3 weeks of regular water. The DEN solution feeding started with 100 ppm in the first week. The average bodyweight (BW) of the animals was measured once a week per group of five rats, and the concentration of DEN in their drinking water was adjusted in proportion to the BW each week relative to that of the first week. […]
On 15th day after treatment, the animals were sacrificed and tumour size and tumour/liver weight were measured. The body, liver, lung, and spleen were weighed, and the aspects of all organs were recorded. After the animals were sacrificed, all liver lobes were promptly removed and weighed, and the diameters of all of the macroscopically visible nodules on the liver surface and in the 5-mm sliced sections were measured. Tumour burden was determined in terms of two criteria: the ratio of liver weight/BW, and the total volume of all the tumour nodules with diameter >3 mm. […]

[2] = system: alpha-fetoprotein (AFP); assay: DEN rat HCC model, serum alpha-fetoprotein; format: in vivo; details: DEN rats, 2 weeks dosing, PBS 27
Protocol: as §1
The serum levels of ALT, AST and total bilirubin were measured with VITROS 5.1 FS Chemistry Systems (Ortho-Clinical Diagnostics, Inc.). The serum level of rat alpha-fetoprotein was evaluated with anti-Rat AFP ELISA Kit (USCN life company/China), following the instructions of the manufacturer.
Serum levels of alpha-fetoprotein (AFP) were measured before treatment and compared to measurement after treatment and represented as ‘AFP change’ (mg/dl). Serum AFP change was measured in each group. […]

[3] = system: Nexavar resistant BNL tumour; assay: Sorafenib-resistant BNL subcutaneous tumour model; format: in vivo, mouse; details: after 3 weeks; MTL-CEBPA 4.2 mg/kg IV d1, d3, d5; anti-PD1 250 ug IP d1, d3, d5; Sorafenib 30 mg/kg PO daily
Protocol: Cell Culture: The mouse hepatocellular carcinoma cell line BNL was maintained in Dulbecco's modified Eagle's medium (DMEM, Gibco by Invitrogen) with […] G418 (Merck, Germany), 1% antibiotic antimycotic (Gibco by Invitrogen) and 10% fetal bovine serum (Gibco by Invitrogen) and cultured at 37° C. in a humidified atmosphere.
Tumour Inoculation and Experimental design: Each BALB/c mice were injected subcutaneously (s.c.) on the flank with 3×10^5 BNL-Luc cells in 0.05 ml of PBS. After inoculation for 3 weeks, Nexavar® (Sorafenib) was orally administered every day for two weeks (30 mg/kg/day).
The selected animals were randomized into the 7 treatment groups (Table 18).
60 mice were injected with 3×10^5 of BNL-Luc cells in […] mixture of PBS. After 3 weeks, the mice were dosed with 30 mg/kg of Sorafenib p.o. every day for 2 weeks. […] The 7 groups included PBS as Control group [PBS]; MTL-CEBPA [C], ([…], I.V., d1, d3, d5); anti-PD1 antibody [P] (250 ug, I.P., d1, d3, d5); Nexavar® (Sorafenib) [N] (30 mg/kg, P.O. daily); MTL-CEBPA+anti-PD1 [C+P]; MTL-CEBPA+Nexavar® (Sorafenib) [C+N] and MTL-CEBPA+anti-PD1+Nexavar® (Sorafenib) [C+P+N].

[4] = system: HCC; details: single agent, published Phase III; cited from earlier work
[5] = system: advanced HCC; details: cited from earlier work
[6] = system: CEBPA-mRNA; assay: qRT-PCR of CEBPA mRNA, CEBPA-51 with FGFR4 antibody; format: cell-based; details: Hep3B; oligo 10 nM, anti-human FGFR4 antibody 30 ug/ml where applicable; 72 hours post-seeding; Mock, no antibody = 1.00
Protocol: RNA was isolated from cultured cells using the RNeasy Mini Kit (QIAGEN). RNA was quantitated using a Qiaxpert (Qiagen), and reverse transcribed using the Quantitect Reverse Transcription Kit (QIAGEN). Relative expression levels were determined by qPCR using Quantifast SYBR Green Master Mix (QIAGEN) on a Quantstudio 5 (Qiagen). The following Quantitect Primer Assays (QIAGEN) were used: CEBPA_1_SG, FGFR4_1_SG and GAPDH_1_SG. Relative expression was determined the DDCt method normalized to GAPDH expression.
(§2) In another study, Hep3B cells were seeded at 1.0×10^5 cells/well in a 24 well plate in the presence of 30 ug/ml anti-human FGFR4 therapeutic antibody (XPA.48.056; Creative Biolabs) as applicable. Cells were transfected with either 10 nM CEBPA-51 saRNA, 10 nM Control oligo (NC) or transfection agent alone (Mock) at seeding and this was repeated 24 hours post- seeding and culture medium changed at 48 hours. FGFR antibody treatment was maintained throughout the experiment. Cells were harvested for RNA collection 72 hours post-seeding qRT-PCR analysis.

[7] = system: Hep3B cells; assay: WST1 growth assay, CEBPA-51 with FGFR4 antibody; format: cell-based; details: oligo 10 nM, FGFR4 antibody where applicable, Mock, no antibody = 1.00
Protocol: (§3) HepB3 cells were seeded at 1×10^4 cells/well in a 96 well plate, reverse transfected with oligo at seeding and forward transfected 24 hours later. WST cell viability assay was performed as according to the manufactures' instructions (with 24 hr WST incubation). The WST alone signal has been subtracted from the cell-WST signal.
as §2
Treatment of Hep3B cells with FGFR4 antibody reduced cell viability. Combination treatment of both FGFR4 antibody and CEPBA-51 further reduced cell viability as monitored by WST1 growth assay (Table 9A, 96 hours; Table 9B, 120 hours).

[8] = system: Hep3B cells; assay: WST-1 growth assay, siFGFR4 / CEBPA-51; format: cell-based; details: 20 nM, Mock = 1.00
Protocol: HepB3 cells were grown in DMEM supplemented with 10% fetal bovine serum (FBS), 2 mM L-glutamine, and penicillin/streptomycin in a 5% CO2 incubator. Transfections were performed using 2 μL of Lipofectamine 2000 (Life Technologies) per well in 24 well plate.
as §3

[9] = system: HCC; details: CHECKMATE-040 subgroup, cited from earlier work

With `CNC(=O)c1cc(Oc2ccc(NC(=O)Nc3ccc(Cl)c(C(F)(F)F)c3)cc2)ccn1` [Sorafenib] the “Tumor volume, Mean” value [1] was 299.5 mm^3, the “AFP change (pre-treatment vs post-treatment), Mean” value [2] was -36.83 mg/dL and the “reduction in tumour volume” value [3] was “no effect”. For the same molecule, the “reduction in tumour weight” value [3] was “no effect”, the “complete responses, share of patients” value [4] was 0% and the “partial responses, share of patients” value [4] was 2%. For the same molecule, the “decrease in the risk of death” value ([5]; patients with advanced HCC) was 31% and the median survival ([5]; patients with advanced disease, placebo 7.9 months) was 10.7 months.
For `COc1cc2nccc(Oc3ccc(NC(=O)NC4CC4)c(Cl)c3)c2cc1C(N)=O` [lenvatinib], the “partial responses, share of patients” value [4] is listed as 24%.
“CEBPA-51: saRNA duplex that upregulates C/EBPa; antisense SEQ ID No. 1, sense SEQ ID No. 2 (sense GCGGUCAUUGUCACUGGUCUU; antisense GACCAGUGACAAUGACCGCUU; sense: sugars from the 5' end mmrmrrrrrmrrrmrrrrrmm, [invAb] at 5' end, backbone not given here; antisense: sugars from the 5' end r19 m2, backbone not given here; further chemistry not fully specified)” showed a CEBPA-mRNA relative expression [6] of 1.31, a Normalized cell viability ([7]; 96 hours after treatment) of 0.32 and a Normalized cell viability ([7]; 120 hours after treatment) of 0.25.
“NC: Negative control oligonucleotide siFLUC, SEQ ID NO: 6 and 7 (chain 1 rCmUmUrAmCrGmCmUrGrArGmUrAmCmUmUmCrGrAdT*dT; chain 2 rUrCrGrArArGmUrArCrUmCrArGrCrGmUrArArGdT*dT)” gave a Normalized cell viability ([8]; 96 hours after treatment) of 0.62, a Normalized cell viability ([8]; 120 hours after treatment) of 0.70 and a CEBPA-mRNA relative expression [6] of 0.89. For the same molecule, the Normalized cell viability ([7]; 96 hours after treatment) was 0.48 and the Normalized cell viability ([7]; 120 hours after treatment) was 0.59.
For Nivolumab: PD-1 inhibitor, Human IgG, the “responders with responses lasting 6 months or longer” value [9] is listed as 91%, the “responders with responses lasting 12 months or longer” value [9] is listed as 55% and the overall response rate ([9]; HCC patients, 95% CI: 9.2, 20.8) is listed as 14.3%. For the same molecule, the complete responses ([9]; HCC patients) was 3 and the partial responses ([9]; HCC patients) was 19.
